The text below walks through data of patent US20240174744A1, “METHODS OF TREATMENT USING PROTEIN BINDERS TO IRHOM2 EPITOPES” (SCIRHOM GMBH, priority 2021, published 2024).

By inhibition is commonly meant the percentage by which the read-out fell short of the control.

The assay relates to PMA-induced release of IL-6R from THP-1 cells. Put plainly: ELISA-based IL-6R release assay, PMA-stimulated THP-1 cells. The assay is classed as cell-based. As to conditions: Homo sapiens, recombinant murine antibodies 1 μg/ml, Batimastat 10 μM, PMA 25 ng/ml, 1 hour. The protocol:
In the following study, ELISA-based IL-6R release assays were performed to analyze the inhibitory effects of the antibodies of the present disclosure on PMA-induced release of endogenous IL-6R from human THP-1 monocytic cells.
In brief, on day 1, Nunc black MaxiSorp® 96-well plates (Thermo Fisher Scientific, USA) were coated for 7 hours with 100 μl per well of mouse anti-human IL-6R capture antibody (provided as part of the DuoSet ELISA kit) at 2 μg/ml TBS at room temperature. Capture antibody solution was removed and MaxiSorp® plates were blocked with 300 μl per well of TBS, 1% BSA at room temperature for 1.5 hours. […] Using an infinite M1000 (Tecan Group, Switzerland) microplate reader, the fluorescence of each well was collected at an excitation wavelength of 435 nm and an emission wavelength of 555 nm.

As to `CNC(=O)[C@H](Cc1ccccc1)NC(=O)[C@H](CC(C)C)[C@H](CSc1cccs1)C(=O)NO` [Batimastat], the inhibition at 10 µM was 88.6%.
